Results as given in patent US11033604B2, “Reagents and methods for treating bacterial infection” (priority 2018, dated 2021).
Positions of bridges follow the written chain, without caps; N, C: chain ends. Non-standard residues stand in square brackets, D forms with d. No end group written: not given here.

Assays:
[1] = system: S. aureus MN8 biofilms; test: ThT fluorescence assay of amyloid formation in S. aureus MN8 biofilm cultures; format: cell-based, Staphylococcus aureus; conditions: for Effect on amyloid fibril formation in S. aureus biofilms (ThT fluorescence, FIG. 1B): MN8 and SH1000 WT strains, particularly MN8; for Effect on amyloid fibril formation in S. aureus biofilms (ThT fluorescence, FIG. 1B) / Reduction of amyloid fibril formation (ThT fluorescence): 24 h, 37° C.; for Reduction of amyloid fibril formation (ThT fluorescence): S. aureus MN8 biofilm, peptide 80 μM unless otherwise noted, vs peptide-free control
Description: We developed a novel protocol to identify amyloid fibril formation during biofilm development in two S. aureus strains—SH1000 WT, a rsbU^+ laboratory strain^27, and MN8, a clinical strain isolated from the human urogenital tract (Table 1). After 24 hours of batch growth in microtiter plates, biofilms were washed and incubated with Thioflavin T (ThT), and the resulting fluorescence signals served as a proxy for the extent of PSM fibril formation in the EM (FIG. 1A). Next, we utilized this assay to test α-sheet amyloid inhibitor designs and control peptides (sequences provided in Table 2) in batch biofilm cultures. The first inhibitor used is AP90 (Alternating Peptide #90, referred to as α1 previously^25,26). […] The AP401 and AP407 designs display similar spectral features by CD, except that AP401 has a positive signal in the random coil region (FIG. 7). AP401 has the same sequence as AP90 but with reversed chirality in the strands and turn, thus the D-amino acids give rise to an approximate mirror image CD spectrum relative to AP90. AP407 is a variant of AP90 with a disulfide bond. An unstructured random coil peptide (RC) and a β-hairpin (β) are used as structural controls.
Designed and control peptides were added to the growth medium prior to inoculation, and biofilms were allowed to grow for 24 hours at 37° C. Planktonic cells were removed and the remaining biofilms were assayed for amyloid content using ThT. […] The disulfide-linked peptide design, AP407, reduced the amyloid fibril formation by 46% and 56% in the MN8 and SH1000 WT strains, respectively. In contrast, the random coil and β-sheet control peptides were ineffective.
Overnight cultures of S. aureus (see Table 1 for a list of strains used in this study) were spun down and re-suspended in fresh Luria-Bertani (LB) media to an optical density of 0.1 (600 nm). These cultures were then mixed with reconstituted peptide (or water, in the case of controls) and aliquoted in quadruplicate into wells of a clear 48-well plate (Corning, TC-treated polystyrene). The final concentration of peptide in each well was 80 μM, unless otherwise noted. Plates were covered and biofilms were grown at 37° C. for 24 hours with gentle rocking. At this time, medium and planktonic cells were removed from wells using a vacuum and the remaining adherent biofilms were rinsed once with PBS (BupH™, Thermo Scientific). Thioflavin T (ThT), an established fluorescent label for amyloid fibrils^40, was then added to each well at a concentration of 22 μM and biofilms were incubated statically for 4 hours at room temperature. The solution was then removed from the wells and PBS was added with vigorous pipetting to detach biofilms from the plate surface. Plates were shaken at high speed for 1 minute on a plate shaker to detach any remaining biofilm material and homogenize the samples. The detached biofilm suspensions were transferred to a 96-well black-walled plate (Corning, TC-treated polystyrene) and ThT fluorescence was read at 438/495 nm on a Perkin-Elmer Enspire™ plate reader. Fluorescence measurements were corrected by subtracting the background intensity of identical samples without ThT. For calculation of live:dead cell ratios, biofilm suspensions were prepared as described above and cells were stained with a 1:1 mixture of Syto9 and propidium iodide (LIVE/DEAD BacLight™ Bacterial Viability Kit, Thermo Scientific). After 15 minutes of incubation at room temperature, fluorescence ratios of the two dyes were determined using a Perkin-Elmer Enspire™ plate reader.

[2] = system: P. aeruginosa PAO1 pFap biofilms; test: In situ ThT assay of Fap amyloid in P. aeruginosa biofilms; format: cell-based; conditions: LB medium, 37° C., 48 h
Description: FIG. 15. Action of synthetic α-sheet peptides in the P. aeruginosa system. […] Error bars indicate standard deviation of the mean of at least three replicates. Significance values are p<0.05: *, p<0.01: **, p<0.001: ***.
The strain used in these experiments is a fap-overexpressing mutant of P. aeruginosa PAO1 WT called PAO1 pFap. The overexpression is generated by cloning the entire fap operon into a host expression vector, which is then transformed into PAO1 WT. […] For in situ assays, overnight cultures from a single colony of freshly transformed PAO1 pFap were used to inoculate 96 well plates in the presence of synthetic α-sheet peptides in LB medium. As a control, biofilms of the deletion strain PAO1 Δfap were grown under the same conditions. Plates were covered and incubated at 37° C. for 48 h. After incubation, planktonic cells and media were gently removed from the biofilms by pipetting. The biofilms were rinsed once with PBS prior to staining with 20 μM ThT. Stained biofilms were resuspended by pipetting and sonication, and the fluorescence of ThT was measured at 448/485 nm in a plate reader.

[3] = system: S. mutans UA159 biofilms; test: ThT assay for S. mutans biofilms (plate); format: cell-based, Streptococcus mutans; conditions: 28 h, vs control
Description: (§1) FIG. 16. Synthetic α-sheet peptides as a novel anti-biofilm agent for the dental pathogen, S. mutans. A) ThT fluorescence of S. mutans biofilms decreases upon addition of synthetic α-sheet peptides AP193, AP407, and AP90. […] D) synthetic α-sheet peptides added to S. mutans grown on hydroxyapatite ceramic particles led to significant decreases in ThT fluorescence.
The peptides AP90, AP407, AP193, P411, and P1 were screened for their ability to inhibit amyloid fibril formation using an optimized ThT assay for S. mutans biofilms. Briefly, S. mutans UA159 overnight cultures were diluted in BHI medium with 30 mM sucrose and 1% (v/v) EC Oxyrase(R) to ensure an oxygen-limited environment. Inocula were then mixed with inhibitors in water, or only water for blank conditions. Biofilms were cultivated at 37° C. in 96 well plates. After 28 h, planktonic cells and media were aspirated. Biofilms were rinsed once with PBS and then resuspended in a solution of 22 μM ThT in PBS. Stained biofilm suspensions were transferred to a new microtiter plate and their fluorescence was measured in a plate reader.
Several synthetic peptides caused significant suppression in the amyloid content of S. mutans biofilms, and the effect was specific to those with α-sheet structure. AP193 at 40 μM decreased ThT fluorescence by 33% (p=0.007). […] AP90 caused a 16% decrease in ThT fluorescence at 85 μM (p=0.017).

[4] = system: PSMα1
Description: FIG. 6. […] Error bars represent the standard error of the mean.

[5] = system: S. mutans biofilms on hydroxyapatite; test: ThT assay of S. mutans biofilms grown on ceramic-hydroxyapatite particles; format: cell-based, Streptococcus mutans; conditions: 24 h
Description: as §1
To assess peptide inhibition of amyloid fibrils in S. mutans adhered to tooth-like surfaces, biofilms were grown on ceramic-hydroxyapatite particles. Hydroxyapatite is the primary mineral present in the structure of a tooth, so this assay is a more physiologically relevant model of S. mutans accumulation. ThT fluorescence of adhered biofilms was determined after 24 h of growth. Synthetic α-sheet peptides were added to medium and hydroxyapatite ceramic particles prior to cell growth. […] Both AP193 monomer and dimer caused significant decreases in ThT fluorescence (23% and 63%, respectively; FIG. 16D).

Row | Substance | Effect on amyloid fibril formation in S. aureus biofilms (ThT fluorescence, FIG. 1B) [1] | Reduction of amyloid fibril formation (ThT fluorescence) [1] [%] | Amyloid formation in biofilms (ThT) [2] | Decrease in ThT fluorescence ([3]; 85 μM) [%] | Fibril formation with increasing peptide concentration (FIG. 1C) ([1]; S. aureus MN8 biofilms, increasing concentrations in culture medium) | Change of binding affinity as PSMα1 converted to β-sheet ([4]; PSMα1 at 146 h vs end of lag phase) | Decrease in ThT fluorescence ([5]; 100 μM) [%] | Binding of PSMα1 to peptide-functionalized beads ([4]; PSMα1 pre-incubated 0, 24, 48 h) | Decrease in ThT fluorescence ([3]; 40 μM) [%] | Decrease in ThT fluorescence ([5]; concentration not given) [%]
1 | RGEmNlCwMNEYSGWcMnLkMGR (RGE[dM]N[dL]C[dW]MNEYSGW[dC]M[dN]L[dK]MGR; disulfide 7-16 (inferred)) [AP407, variant of AP90 with a disulfide bond] | significant reduction in amyloid fibril formation | 46 | significantly inhibit amyloid formation | 42 |  |  |  |  |  | 
2 | RGEmNlSwMNEYSGWtMnLkMGR (RGEMNLSWMNEYSGWTMNLKMGR; not fully specified (residues 4, 6, 8, 16, 18, 20); printed as RGEmNlSwMNEYSGWtMnLkMGR) [AP90] | significant reduction in amyloid fibril formation | 47 | significantly inhibit amyloid formation | 16 | decreased in a dose-dependent manner | dropped by two orders of magnitude | 20 |  |  | 
3 | RGEmNyFwMNEYYGWtMnCkMGR (RGE[dM]N[dY]F[dW]MNEYYGW[dT]M[dN]C[dK]MGR) [AP193, hydrophobic AP90 derivative, variant to support different chemical coupling reactions] |  |  | significantly inhibit amyloid formation |  |  |  |  | preferentially bound α-sheet rich PSMα1 (48 h) over earlier time points | 33 | 23
